Results as given in US12649925B2, “Tissue-specific expression and hybrid plant production” (Dow AgroSciences LLC, priority 2013, dated 2026).

B1: pDAB112375: Transient transformation construct: ZmUbilv2/AAD1 v3/native WT miR529-156 site/ZmPer5 3′UTR (SEQ ID NO:6) (nucleic acid)
DNA: ATGGCTCATGCTGCCCTCAGCCCTCTCTCCCAACGCTTTGAGAGAATAGCTGTCCAGCCACTCACTGGTGTCCTTGGTGCTGAGATCACTGGAGTGGACTTGAGGGAACCACTTGATGACAGCACCTGGAATGAGATATTGGATGCCTTCCACACTTACCAAGTCATCTACTTTCCTGGCCAAGCAATCACCAATGAGCAGCACATTGCATTCTCAAGAAGGTTTGGACCAGTTGATCCAGTGCCTCTTCTCAAGAGCATTGAAGGCTATCCAGAGGTTCAGATGATCCGCAGAGAAGCCAATGAGTCTGGAAGGGTGATTGGTGATGACTGGCACACAGACTCCACTTTCCTTGATGCACCTCCAGCTGCTGTTGTGATGAGGGCCATAGATGTTCCTGAGCATGGCGGAGACACTGGGTTCCTTTCAATGTACACAGCTTGGGAGACCTTGTCTCCAACCATGCAAGCCACCATCGAAGGGCTCAACGTTGTGCACTCTGCCACACGTGTGTTCGGTTCCCTCTACCAAGCACAGAACCGTCGCTTCAGCAACACCTCAGTCAAGGTGATGGATGTTGATGCTGGTGACAGAGAGACAGTCCATCCCTTGGTTGTGACTCATCCTGGCTCTGGAAGGAAAGGCCTTTATGTGAATCAAGTCTACTGTCAGAGAATTGAGGGCATGACAGATGCAGAATCAAAGCCATTGCTTCAGTTCCTCTATGAGCATGCCACCAGATTTGACTTCACTTGCCGTGTGAGGTGGAAGAAAGACCAAGTCCTTGTCTGGGACAACTTGTGCACCATGCACCGTGCTGTTCCTGACTATGCTGGCAAGTTCAGATACTTGACTCGCACCACAGTTGGTGGAGTTAGGCCTGCCCGCTGAGTAGTTAGCTTAATCACCTAGAGCTCGACTCCAGCTGTGCTCTCTCTCTTCTGTCAACTCAGGTAACCTTTAAACTGAGGGCACTGAAGTCGCTTGATGTGCTGAATTGTTTGTGATGTTGGTGGCGTATTTTGTTTAAATAAGTAAGCATGGCTGTGATTTTATCATATGATCGATCTTTGGGGTTTTATTTAACACATTGTAAAATGTGTATCTATTAATAACTCAATGTATAAGATGTGTTCATTCTTCGGTTGCCATAGATCTGCTTATTTGACCTGTGATGTTTTGACTCCAAAAACCAAAATCACAACTCAATAAACTCATGGAATATGTCCACCTGTTTCTTGAAGAGTTCATCTACCATTCCAGTTGGCATTTATCAGTGTTGCAGCGGCGCTGTGCTTTGTAACATAACAATTGTTACGGCATATATCCAA
modifications: pDAB112375 expression cassette; (918)..(952) native tsh4 miR529-156 target site; (967)..(1331) ZmPer5 3′UTR

How the values were obtained:
maize tissues = test: miRNA microarray expression profiling in maize tissues; design: species or system Zea mays
Method: miRNA microarray in various maize tissues: Tissues from maize inbred line B104 were used for miRNA profiling. Leaf tissues (at V2, V8 and flag leaf stages); immature tassel tissues (0.5 to 2.5 cm length); mature tassel tissues (tassel visible in the whorl); immature ear tissues (0.5 to 2 cm length); and mature ear tissues (visible ear shoot) were collected and immediately submerged in liquid nitrogen and stored at −80° C. Total RNA and low molecular weight RNAs were extracted using a mirVana™ miRNA isolation kit (INVITROGEN; Carlsbad, CA) following the manufacturer's instructions. RNA quality and quantity were assessed by optical density with a NANODROP 2000 spectrophotometer (THERMO SCIENTIFIC; Wilmington, DE) and by gel electrophoresis. miRNA microarray was performed by a commercial provider (LC SCIENCES; Houston, TX) using μParaflo® microfluidic oligonucleotide microarray technology. Zhou et al., (2012) Methods Mol. Biol. 822:153-82. All unique plant miRNA sequences available in MiRBase™ (mirbase.org) were printed on the arrays and used for miRNA profiling. […]

Maize Immature Embryos = test: Transient AAD1 expression in immature embryos after particle bombardment, ELISA; assay type: cell-based, Zea mays; conditions: 24 hours after particle bombardment
Source text: Zea mays embryos from inbred line B104 that express AAD1 mRNAs having miRNA target sites within the mRNA were produced. Control tissues having no miRNA target sites in the AAD1 mRNA, or having no AAD1 gene expression cassette, were also produced. Other control tissues were produced that had only a YFP gene expression cassette (and no AAD1 construct). Preparations of plant transformation DNA molecules constructed as described in EXAMPLE 2 were delivered into maize B104 immature embryos via particle bombardment transformation.
Plasmid DNAs of pDAB112375, pDAB112376, pDAB112377, pDAB113016, pDAB100286, pDAB112378 and pDAB112330 were isolated and purified from Escherichia coli by standard techniques, and diluted in TE buffer (10 mM Tris HCl plus 1 mM EDTA, pH 8) to 1.0 μg/μL.
Embryo isolation and culture: (Day 1) Surface-sterilized B104 immature ears (10 to 12 days post-pollination) were used for the isolation of embryos. Excised immature embryos from 3 to 4 ears were pooled into 2 mL microfuge tubes containing 2.0 mL liquid medium (LS basal medium (Linsmaier and Skoog, (1965) Physiologia Plantarum 18:100-27) containing CHU N6 vitamins (Chu et al. (1975) Scientia Sinica 18:659-68), 700 mg/L L-Proline, 68.5 gm/L sucrose, 36 gm/L D(+) glucose, and 1.5 mg/L 2,4-D). After embryo isolation, the liquid medium was removed and discarded. Embryos were removed and placed onto plates (40 embryos per plate) containing a semi-solid osmotic medium (MS basal medium (Murashige and Skoog, (1962) Physiologia Plantarum 15:473-497), 2 mg/L Glycine, 500 μg/L Thiamine, 500 μg/L Pyroxidine, 50 μg/L Nicotinic Acid., 120 gm/L sucrose, 100 mg/L myo-inositol, and 2.4 gm/L GELRITE). The embryos were arranged in a […] within the target area for particle bombardment. Three replicate plates were prepared for each construct to be tested. All plates were incubated at 28° C. under continuous low light (50 μEm^−2 sec^−1) for 24 hours prior to particle bombardment.
Coating gold particles with DNA: (Day 2) Tubes of frozen gold particles glycerol stock were thawed on ice for a few minutes, then vortexed for 2 minutes at high speed until a uniform gold suspension was produced. Gold suspension was pipetted into sterile microcentrifuge tubes (50 μL each), with an intermediate vortexing of the particle stock between each tube to maintain a uniform suspension. 2.5 μg each of appropriate plasmid DNAs were included. […]
ELISA quantification of AAD1 and PAT proteins: Enzyme Linked Immunosorbant Assays (ELISAs) were used to measure the production of AAD1 and PAT proteins in maize cells and stably-transformed tissues. […]

Row | Molecule | relative expression levels (maize tissues; Flag Leaf) | relative expression levels (maize tissues; Immature Ear) | relative expression levels (maize tissues; Immature Tassel) | relative expression levels (maize tissues; Leaf V2) | relative expression levels (maize tissues; Leaf V8) | relative expression levels (maize tissues; Mature Ear) | relative expression levels (maize tissues; Mature Tassel) | level higher in immature tassel tissues than in leaves (maize tissues; immature tassel vs leaves) | Mean AAD1 Amount (Maize Immature Embryos; co-bombardment plasmid pDAB112330 (Cry34Ab)) [ng/mL] | Mean AAD1 Amount (Maize Immature Embryos; co-bombardment plasmid pDAB112378 (artificial miRNA)) [ng/mL]
1 | miR156: Zea mays micro-RNA, SEQ ID NO:1 UGACAGAAGAGAGUGAGCAC (expressed or natural sequence) | 1657 | 112 | 78 | 4648 | 1337 | 1595 | 2810 |  |  | 
2 | miR319: micro-RNA, SEQ ID NO:3 UUGGACUGAAGGGUGCUCCC (expressed or natural sequence) | 16 | 3905 | 2078 | 13 | 8 | 4616 | 1566 |  |  | 
3 | miR529: Zea mays micro-RNA, SEQ ID NO:2 AGAAGAGAGAGAGUACAGCCU (expressed or natural sequence) | 30 | 90 | 3174 | 199 | 34 | 1405 | 1512 | 16- to 100 fold |  | 
4 | B1 |  |  |  |  |  |  |  |  | 58 | 51
